One sequence from paper PMC3679022, “A Cancer Specific Cell-Penetrating Peptide, BR2, for the Efficient Delivery of an scFv into Cancer Cells” (PLoS ONE, 2013) can be followed below.

In one data set the test system is HeLa cells. It is filed as cell-based, human. As to conditions: FACS. The protocol:
To evaluate the internalization of FITC-labeled peptides, HeLa cells were seeded onto 12-well plates at a density of 2×10^5 cells per well and incubated for 24 h. FITC-labeled peptides, at various concentrations ranging from […], were then incubated with the cells for 30 min at 37°C. To compare the cellular uptake of peptides, cancer and normal cells were treated with FITC-labeled peptides (each, 10 µM) and incubated for 30 min at 37°C. Following the incubation, cells were washed three times with ice-cold PBS to remove excess extracellular complexes. Next, the cells were treated with trypsin (1 mg/ml) for 10 min to remove any remaining peptides bound to the cell surface. After trypsinization, the cells were collected by centrifugation (1,000×g for 5 min), resuspended with 500 µl ice-cold 2% FBS/PBS containing propidium iodide (PI), and then immediately analyzed (10,000 events/sample) by fluorescence activated cell sorting (FACS).
To understand further the cell-penetrating mechanism of peptides, the effects of temperature and metabolic inhibitors were examined. To elucidate the temperature dependency, HeLa cells were incubated at 4°C for 30 min prior to the addition of the peptides. Next, cells were treated with FITC-labeled peptides (each, 5 µM) at 4°C for 30 min. For the energy-depletion study, HeLa cells were preincubated with sodium azide (NaN3, 10 mM) at 37°C for 1 h and then incubated with FITC-labeled peptides (each, 5 µM) at 37°C for 30 min.
To study the role of endocytosis in peptide uptake, cells were pretreated with several endocytosis inhibitors at 37°C for 1 h: (i) amiloride (5 mM), which is known to block macropinocytosis by inhibiting a sodium channel; (ii) nocodazole (100 ng/ml), which inhibits the clathrin-mediated pathway; and (iii) methyl-ß-cyclodextrin (MßCD, 5 mM), which inhibits lipid raft-mediated processes by depleting cholesterol from the plasma membrane. All inhibitors were purchased from Sigma (St. Louis, MO).
To examine the effects of negatively charged components on the cell surface for peptide internalization, HeLa cells were pretreated with gangliosides (monosialoganglioside GM3 from canine blood), heparin sulfate, or sialic acid (Neu5Ac, all from Sigma) (20 µg/ml) for 30 min. For the inhibition of ganglioside biosynthesis, cells were pretreated with D-threo-1-phenyl-2-hexadecanoyl amino-3-morpholino-1-propanol (PPMP, 5 µM) for 48 h.
For all of these experimental conditions, flow cytometry analyses were performed with live cells using a Becton Dickinson FACSCalibur flow cytometer (BD Biosciences, San Diego, CA). In each case, the fluorescence of 10,000 viable cells was acquired. Viable cells were gated based on a sideward and forward scatter. For data analysis, WinMDI software (Joe Trotter, Scripps Research Institute, La Jolla, CA) was used. The statistical significance was evaluated by Student’s t-test at a 95% confidence interval.
Figure 2 BR2 specifically penetrates cancer cell membranes in a concentration-dependent manner. (A) Analysis of the cell-penetrating efficiency of each peptide in different cell types by flow cytometry. FITC-labeled Tat, BR1 and BR2 peptides (10 µM) were added to different cell types: HeLa, HCT116 and B16/F10 cancer cells and HaCat, BJ and NIH 3T3 normal cells. After 30 min of incubation at 37°C, the FITC-positive cells were counted by flow cytometry. Values represent the percentage of fluorescence-positive cells in the total cell population. (B) Quantitative assessment of cell penetration of each peptide by flow cytometry. HeLa cells were incubated with FITC-labeled peptides at concentrations of 1, 2, 5, or 10 µM for 30 min at 37°C. Afterwards the cells were washed with cold PBS and harvested and cellular fluorescence was analyzed by flow cytometry. […] Prior to analysis, extracellular fluorescence of surface bound peptides was removed by a trypsin treatment (1 mg/ml for 10 min). […]

Data set [1] relates to cancer cell lines (HeLa, HCT116 and B16/F10). The data set can be described thus: In vitro cytotoxicity assay (LDH leakage), cancer cell lines. As to conditions: 100 µM peptide, 24 h, 37°C; 0.2% Triton X-100 = 100%; n = 3. (In general: Release of lactate dehydrogenase indicates damage to the cell membrane.)
Protocol: (§1) The cytotoxicity of peptides to mammalian cells was investigated by assessing the release of lactate dehydrogenase (LDH) from cancer and normal cells. The amount of LDH released from damaged cells into the supernatant was measured using the Cytotoxicity Detection Kit (Roche Applied Science, Germany) according to the manufacturer’s instructions. In brief, cells were plated onto 96-well microplates (1×10^4 cells per well) in complete DMEM supplemented with 10% FBS and incubated overnight at 37°C to allow for attachment and spreading of cells. After 24 h of incubation, cells were treated with various concentrations of peptides (0–100 µM) and incubated for another 24 h at 37°C. The extracellular medium from each well was transferred to a new microplate and incubated for 10 min with 100 µl/well reaction mixture, followed by a stop solution. Absorbance was measured at 490 nm by using an ELISA plate reader. LDH release from cells lysed with 0.2% Triton X-100 in PBS was defined as 100% leakage and LDH release from untreated cells as 0% leakage.
(§2) (B,C) In vitro cytotoxicity of peptides. (B) Membrane disturbance was measured by lactate dehydrogenase (LDH) leakage from the indicated cell lines 24 h after peptide treatment. LDH leakage from cells seeded in a 96-well plate at 10,000 cells/well was measured after exposure to 1, 2, 5, 10, 20, 50 or 100 µM peptides for 24 h. […]
Data set [2] deals with normal cell lines (HaCat, BJ and NIH 3T3). Nature of the data set: In vitro cytotoxicity assay (LDH leakage), normal cell lines. As to conditions: 24 h, 37°C.
Protocol: as §1, §2

With RAGLQFPVGRLLRRLLR [BR2], in the data set on HeLa cells (FITC-labeled peptide 5 µM, 30 min at 4°C after preincubation at 4°C), the “decrease of cellular uptake at 4°C compared to 37°C” value stood at 88.5%. Moreover, in the data set on HeLa cells (MßCD 5 mM pretreatment 1 h 37°C, peptide 30 min 37°C, mean of three experiments), the “inhibition of penetration by methyl-ß-cyclodextrin (MßCD)” value was determined as 44.6%. Besides, the “reduction of uptake by ATP depletion (sodium azide)” value with HeLa cells (NaN3 10 mM preincubation 1 h 37°C, then FITC-labeled peptide 5 µM 30 min 37°C) amounted to 67.7%. In the data set on HeLa cells (PPMP 5 µM pretreatment 48 h), the “effect of ganglioside synthesis inhibitor PPMP on peptide uptake” value is listed as “significantly reduced”. In addition, in the data set with HeLa cells (amiloride 5 mM pretreatment 1 h 37°C, peptide 30 min 37°C, mean of three experiments), the “inhibition of cellular uptake by amiloride” value was 36.5%. In addition, the “effect of exogenous gangliosides on peptide penetration” value in the data set with HeLa cells (gangliosides (GM3) 20 µg/ml, 30 min) is “partially inhibited”. Moreover, in the data set on HeLa cells (heparin 20 µg/ml, 30 min), the “effect of exogenous heparin on peptide uptake” value is “almost no effect”. In addition, in the data set on HeLa cells (nocodazole 100 ng/ml pretreatment 1 h 37°C, peptide 30 min 37°C), the “effect of nocodazole on peptide transduction” value is reported as “negligible effect”. Also, the “effect of exogenous sialic acids on peptide penetration” value with HeLa cells (sialic acid (Neu5Ac) 20 µg/ml, 30 min) is “partially inhibited”. In addition, the LDH leakage is recorded as 40–60% in data set [1]; roughly 17% in data set [2] (100 µM peptide, 0.2% Triton X-100 = 100%, n = 3); “not detected” in data set [2] (peptide concentrations below 70 µM).
